Measured values: patent publication US12161632B2, “Compositions and methods of treating cardiac fibrosis with ifetroban” (Cumberland Pharmaceuticals Inc., priority 2014, dated 2024)
Counter-ions that a name gives are not always drawn.

What was measured:
[1] = test system: right ventricle gene expression; test: Right ventricle gene expression, Affymetrix Mouse Gene 2.0 arrays (Example IV); type: in vivo, mice; conditions: sham surgery mice, 25 mg/kg/day, 2 weeks
Protocol: FVB/N mice or mice with a GFP macrophage-specific lineage tracing marker (LysM-Cre) underwent pulmonary banding to directly increase load stress (or sham surgery for controls), and starting the following day received either vehicle or the thromboxane receptor antagonist Ifetroban sodium in their drinking water (25 mg/kg/day). After 2 weeks, noninvasive hemodynamics were obtained by transthoracic echocardiography and invasive hemodynamics were obtained by pressure-volume catheterization of the right heart prior to sacrifice. Hearts were assessed for fibrosis and macrophage infiltration. RNA from right ventricles were isolated and used for unbiased discovery of altered gene expression using Affymetrix Mouse Gene 2.0 arrays performed on four groups (banded or sham). LysM-Cre mouse hearts were flash-frozen whole, cross-sectioned, and assessed by microscopy for fibrosis and macrophage infiltration. Differences between groups were assessed by ANOVA and t-tests. Correlations were assessed by Spearman correlation.

[2] = test system: RV monocytes / macrophages; test: Cardiac monocytes: LysM-Cre lineage tracing and flow cytometry of RV (Example VII); type: in vivo, mice; conditions: LysM-Cre reporter mice, aspirin
Protocol: Both male and female age-matched C57Bl/6 or FVB/NJ mice, obtained by in-house breeding, were used for pulmonary artery banding. LysM-GFP mice were obtained by cross-breeding LysM-Cre×mTomato/GFP reporter mice B6.129P2-Lyz2tm1(cre)Ifo/J (a gift from Tim Blackwell)×Gt(ROSA)26Sortm4(ACTB-tdTomato, -EGFP)Luo (JAX stock #007676). The day following surgery, mice were given either 25 mg/kg/day IFETROBAN (Cumberland Pharmaceuticals Inc., Nashville, TN) in drinking water or normal drinking water (vehicle) for 2 weeks or 6 weeks prior to hemodynamic evaluation. Mice were weighed and water was changed once a week.
TP receptors are also expressed on monocytes, and blockade of these receptors may have immune-specific effects. To determine whether the decrease in fibrosis seen with TP receptor inhibition was due to decreased macrophage infiltration or proliferation in the RV, PAB on LysM-Cre mice expressing eGFP under the LysozymeM promoter was performed, where all cells that have ever had monocyte lineage are labeled with GFP, even if they have later differentiated. […] Transgenic LysM-Cre×flox-mTomato-flox eGFP mice were used to label cells of monocyte derivation in the RV. These mice express a fluorescent red, except in cells derived from monocyte lineage (even if they have later differentiated), which express a fluorescent green. […] Flow sorting of whole RV for circulating markers found a non-significant trend towards an increase in PA-banded mice that was blocked by ifetroban.

[3] = test system: pulmonary artery banding (PAB) model of right ventricular pressure overload; test: PAB model of right ventricular pressure overload: hemodynamics, echocardiography, histology (Example VII); type: in vivo; conditions: PAB mice

Structure (SMILES) | the same expression changes in the sham surgery group [1] | number of RV monocytes / green (monocyte lineage) cells after PAB [2] | number of RV monocytes / green (monocyte lineage) cells after PAB ([2]; listed as ASA) | replication of the ifetroban results (fibrosis, hypertrophy, TSP-4, TGF-beta) ([3]; low-dose aspirin) | RV fibrosis (Masson's trichrome) ([3]; oral aspirin 10 mg/kg/day, 2 weeks)
CCCCCNC(=O)c1coc([C@H]2[C@@H](Cc3ccccc3CCC(=O)O)[C@@H]3CC[C@H]2O3)n1 [Ifetroban sodium, [1S-(1α,2α,3α,4α)]-2-[[3-[4-[(Pentylamino)carbonyl]-2-oxazolyl]-7-oxabicyclo[2.2.1]hept-2-yl]methyl]-benzenepropanoic acid, monosodium salt] | not found in the sham surgery group |  |  |  | 
CC(=O)Oc1ccccc1C(=O)O [aspirin] |  | appeared to increase the number of RV monocytes | significantly increases numbers of green cells | failed to replicate these results | failed to prevent fibrosis
